Results: patent US20240398795A1, “COMBINATION THERAPIES USING PRMT5 INHIBITORS FOR THE TREATMENT OF CANCER” (MIRATI THERAPEUTICS, INC., priority 2021, published 2024)

Key:
Assay type in all cases: in vivo, mice
[1] = test system: A549 xenograft tumors; assay: A549 xenograft tumor volume study; conditions: n=5, MRTX1719 100 mg/kg PO QD, Docetaxel 15 mg/kg IP Q7D, combination 100 mg PO QD + 15 mg/kg IP Q7D
Protocol: (§1) Immunodeficient female nu/nu or BALBC/Nude mice were subcutaneously implanted with 3×10^6 to 1×10^7 human derived cancer cells depending on the cell line xenograft model. Tumors were measured using calipers until they reached approximately 100-150 mm^3. […] Tumor volume was measured twice a week (n=5/treatment group). Average tumor volume and standard error of the mean was calculated and plotted at each study day in GraphPad.
(§2) This example was carried out according to the study procedure described above. The PRMT5 inhibitor was MRTX1719 administered at 100 mg/kg once a day (QD). MRTX1719 is (2M)-2-(4-(4-(aminomethyl)-1-oxo-1,2-dihydrophthalazin-6-yl)-1-methyl-1H-pyrazol-5-yl)-4-chloro-6-cyclopropoxy-3-fluorobenzonitrile, disclosed as Example 16-8 at p. 307 of the International patent publication No. WO 2021/050915 A1, published 18 Mar. 2021, incorporated by reference in its entirety.
Substantially the same procedure as Example 1 was repeated except with mice bearing A549 xenograft tumors.

[2] = test system: KP4 xenograft tumors; assay: KP4 xenograft tumor volume study; conditions: n=5, Docetaxel 15 mg/kg IP Q7D, combination 100 mg PO QD + 15 mg/kg IP Q7D
Protocol: as §1, §2
Substantially the same procedure of Example 1 was repeated except with mice bearing KP4 xenograft tumors.

[3] = test system: MIAPaCa-2 xenograft tumors; assay: MIAPaCa-2 xenograft tumor volume study; conditions: n=5, MRTX1719 100 mg/kg PO QD, Docetaxel 15 mg/kg IP Q7D, combination 100 mg PO QD + 15 mg/kg IP Q7D
Protocol: as §1
This example was carried out according to the study procedure described above. The PRMT5 inhibitor was MRTX1719 administered at 100 mg/kg once a day (QD). […] 307 of the International patent publication No. WO 2021/050915 A1, published 18 Mar. 2021, incorporated by reference in its entirety.
Substantially the same procedure of Example 1 was repeated except with mice bearing MIAPaCa-2 xenograft tumors.

[4] = test system: SW1573 xenograft tumors; assay: SW1573 xenograft tumor volume study; conditions: n=5, MRTX1719 50 mg/kg PO QD, Docetaxel 15 mg/kg IP Q7D, combination 50 mg PO QD + 15 mg/kg IP Q7D
Protocol: as §1
as §2, with “The PRMT5 inhibitor was MRTX1719 administered at 100 mg/kg once a day (QD).” left out
Substantially the same procedure as Example 1 was repeated except with mice bearing SW1573 xenograft tumors.

[5] = test system: H1650 xenograft tumors; assay: NCI-H1650 xenograft tumor volume study; conditions: n=5, MRTX1719 100 mg/kg PO QD, Docetaxel 10 mg/kg IP Q7D, combination 100 mg/kg PO QD + 10 mg/kg IP Q7D
Protocol: as §1, §2

[6] = test system: HCC4006 xenograft tumors; assay: HCC4006 xenograft tumor volume study; conditions: n=5, MRTX1719 100 mg/kg PO QD, Docetaxel 10 mg/kg IP Q7D, combination 100 mg PO QD + 10 mg/kg IP Q7D
Protocol: as §1, §2
Substantially the same procedure as Example 1 was repeated except with mice bearing HCC4006 xenograft tumors.

[7] = test system: LU99 xenograft tumors; assay: LU99 xenograft tumor volume study; conditions: n=5, MRTX1719 50 mg/kg PO QD, Docetaxel 15 mg/kg IP Q7D, combination 50 mg PO QD + 15 mg/kg IP Q7D
Protocol: as §1
as §2, with “The PRMT5 inhibitor was MRTX1719 administered at 100 mg/kg once a day (QD).” left out
Substantially the same procedure of Example 1 was repeated except with mice bearing LU99 xenograft tumors.

[8] = test system: NCI-H2228 xenograft tumors; assay: NCI-H2228 xenograft tumor volume study; conditions: n=5, MRTX1719 100 mg/kg PO QD, Docetaxel 10 mg/kg IP Q7D, combination 100 mg PO QD + 10 mg/kg IP Q7D
Protocol: as §1, §2
Substantially the same procedure as Example 1 was repeated except with mice bearing NCI-H2228 xenograft tumors.

**Q.** Which results are given for `CC(=O)O[C@@]12CO[C@@H]1C[C@H](O)[C@@]1(C)C(=O)[C@H](O)C3=C(C)[C@@H](OC(=O)[C@H](O)[C@@H](NC(=O)OC(C)(C)C)c4ccccc4)C[C@@](O)([C@@H](OC(=O)c4ccccc4)[C@H]21)C3(C)C` [Docetaxel, docetaxel]?
**A.** Tumor Volume, Mean ([1]; Day 1): 118 mm^3; Tumor Volume, Mean ([1]; Day 5): 128 mm^3; Tumor Volume, Mean ([1]; Day 8): 156 mm^3; Tumor Volume, Mean ([1]; Day 12): 160 mm^3; Tumor Volume, Mean ([1]; Day 15): 169 mm^3; Tumor Volume, Mean ([1]; Day 19): 167 mm^3; Tumor Volume, Mean ([1]; Day 22): 163 mm^3; Tumor Volume, Mean ([1]; Day 26): 162 mm^3; Tumor Volume, Mean ([1]; Day 29): 189 mm^3; Tumor Volume, Mean ([1]; Day 34): 239 mm^3; Tumor Volume, Mean ([2]; Day 0, MRTX1719 100 mg/kg PO QD): 144 mm^3; Tumor Volume, Mean ([2]; Day 5, MRTX1719 100 mg/kg PO QD): 121 mm^3; Tumor Volume, Mean ([2]; Day 7, MRTX1719 100 mg/kg PO QD): 105 mm^3; Tumor Volume, Mean ([2]; Day 11, MRTX1719 100 mg/kg PO QD): 90 mm^3; Tumor Volume, Mean ([2]; Day 14, MRTX1719 100 mg/kg PO QD): 82 mm^3; Tumor Volume, Mean ([2]; Day 19, MRTX1719 100 mg/kg PO QD): 126 mm^3; Tumor Volume, Mean ([2]; Day 21, MRTX1719 100 mg/kg PO QD): 272 mm^3; Tumor Volume, Mean ([2]; Day 25): 482 mm^3; Tumor Volume, Mean ([2]; Day 28): 592 mm^3; Tumor Volume, Mean ([2]; Day 32): 785 mm^3; Tumor Volume, Mean ([2]; Day 35): 895 mm^3; Tumor Volume, Mean ([3]; Day 1): 133 mm^3; Tumor Volume, Mean ([3]; Day 5): 187 mm^3; Tumor Volume, Mean ([3]; Day 13): 268 mm^3; Tumor Volume, Mean ([3]; Day 16): 315 mm^3; Tumor Volume, Mean ([3]; Day 19): 375 mm^3; Tumor Volume, Mean ([3]; Day 22): 415 mm^3; Tumor Volume, Mean ([4]; Day 0): 141 mm^3; Tumor Volume, Mean ([4]; Day 3): 148 mm^3; Tumor Volume, Mean ([4]; Day 8): 191 mm^3; Tumor Volume, Mean ([4]; Day 10): 231 mm^3; Tumor Volume, Mean ([4]; Day 14): 281 mm^3; Tumor Volume, Mean ([4]; Day 17): 302 mm^3; Tumor Volume, Mean ([4]; Day 21): 352 mm^3; Tumor Volume, Mean ([5]; Day 0): 147 mm^3; Tumor Volume, Mean ([5]; Day 3): 291 mm^3; Tumor Volume, Mean ([5]; Day 7): 425 mm^3; Tumor Volume, Mean ([5]; Day 10): 660 mm^3; Tumor Volume, Mean ([5]; Day 14): 710 mm^3; Tumor Volume, Mean ([5]; Day 17): 770 mm^3; Tumor Volume, Mean ([5]; Day 20): 826 mm^3; Tumor Volume, Mean ([6]; Day 0): 126 mm^3; Tumor Volume, Mean ([6]; Day 2): 151 mm^3; Tumor Volume, Mean ([6]; Day 5): 139 mm^3; Tumor Volume, Mean ([6]; Day 9): 140 mm^3; Tumor Volume, Mean ([6]; Day 12): 150 mm^3; Tumor Volume, Mean ([6]; Day 16): 143 mm^3; Tumor Volume, Mean ([6]; Day 20): 137 mm^3; Tumor Volume, Mean ([7]; Day 0): 153 mm^3; Tumor Volume, Mean ([7]; Day 5): 184 mm^3; Tumor Volume, Mean ([7]; Day 8): 299 mm^3; Tumor Volume, Mean ([7]; Day 12): 459 mm^3; Tumor Volume, Mean ([7]; Day 15): 757 mm^3; Tumor Volume, Mean ([7]; Day 20): 1057 mm^3; Tumor Volume, Mean ([7]; Day 22): 1255 mm^3; Tumor Volume, Mean ([7]; Day 26): 1722 mm^3; Tumor Volume, Mean ([8]; Day 0): 121 mm^3; Tumor Volume, Mean ([8]; Day 3): 100 mm^3; Tumor Volume, Mean ([8]; Day 6): 73 mm^3; Tumor Volume, Mean ([8]; Day 9): 76 mm^3; Tumor Volume, Mean ([8]; Day 13): 68 mm^3; Tumor Volume, Mean ([8]; Day 16): 42 mm^3; Tumor Volume, Mean ([8]; Day 20): 15 mm^3; Tumor Volume, Mean ([8]; Day 23): 10 mm^3; Tumor Volume, Mean ([8]; Day 27): 12 mm^3
